Measurements as given in US6015829A, “1-phenylpyrazole compounds and medicinal application thereof” (Yoshitomi Pharmaceutical Industries, ltd., priority 1996, dated 2000).

Tested on: uric acid value of mouse serum
Assay: Lowering of Uric Acid Value of Mouse Serum
Assay type: in vivo
Settings: male ICR mice, 0.3 mg/kg into the stomach
Method: Lowering of Uric Acid Value of Mouse Serum
A sample suspended in 0.5% aqueous hydroxypropyl methyl cellulose (HPMC) solution was forcibly administered into the stomach of 4 to 6 week-old male ICR mice (4 per group) in a dose of 0.3 mg/kg using an oral sound probe. At 2 and 6 hours after the administration of the sample, mice were anesthetized with halothane. Blood samples were taken from both carotid arteries and the mice were exsanguinated. The blood was stood at room temperature for 20-30 minutes and centrifuged at 2000×g for 15 minutes to give serum. The uric acid value was measured using a uric acid measurement kit (manufactured by Wako Pure Chemicals Co.) by phosphotungstic acid method. The obtained values were applied to the following formula to give uric acid value decrease percentage at 2 and 6 hours after the administration of the sample.
Uric acid value decrease (%)=(1-average uric acid value of group administered with sample/average uric acid value of group administered with HPMC)×100

## Oc1ncnc2[nH]ncc12 [allopurinol]
2 hours after administration
  Uric acid value decrease (%) at 2 hours: 33%
6 hours after administration
  Uric acid value decrease (%) at 6 hours: 14%
